Results on two compounds are retold here after ChEMBL document CHEMBL2176889, “Design, synthesis, and pharmacological evaluation of monocyclic pyrimidinones as novel inhibitors of PDE5” (J Med Chem, 2012).

Calls of active or inactive are those of the source. The rule behind the calls is not given here.

Data set [1] is described as follows: Cmax in Sprague-Dawley rat at 10 mg/kg, po by LC-MS/MS method. To be noted: in vivo. The class given is ADME, organism-based. Also on record: dose 10 mg/kg, route oral.
The nature of data set [2]: AUC (0 to 10 hrs) in Sprague-Dawley rat at 5 mg/kg, iv by LC-MS/MS method. Type of data set: ADME, organism-based. Also on record: time < 10 hr, dose 5 mg/kg, route intravenous. To be noted: plasma.
A short description of data set [3]: AUC (0 to 10 hrs) in Sprague-Dawley rat at 10 mg/kg, po by LC-MS/MS method. Type of data set: ADME, organism-based. Set-up: time < 10 hr, dose 10 mg/kg, route oral. To be noted: plasma.
For another data set, the system named is Rattus norvegicus. The data set is described as follows: Increase in intracavernous pressure/blood pressure in Sprague-Dawley rat model of erection at 10 mg/kg, po measured 30 mins post dose. Type of data set: functional, organism-based. Also on record: dose 10 mg/kg.
Data set [4] can be described thus: Tmax in Sprague-Dawley rat at 10 mg/kg, po by LC-MS/MS method. Type of data set: ADME, organism-based. Also on record: dose 10 mg/kg, route oral. To be noted: in vivo.
Data set [5] is described as follows: Clearance in Sprague-Dawley rat at 5 mg/kg, iv by LC-MS/MS method. To be noted: in vivo. Type of data set: ADME, organism-based. Also on record: dose 5 mg/kg, route intravenous.
A short description of data set [6]: Half life in Sprague-Dawley rat at 10 mg/kg, po by LC-MS/MS method. Type of data set: ADME, organism-based. Also on record: dose 10 mg/kg, route oral. To be noted: in vivo.
The nature of data set [7]: Volume of distribution in Sprague-Dawley rat at 5 mg/kg, iv by LC-MS/MS method. The class given is ADME, organism-based. Also on record: dose 5 mg/kg, route intravenous. To be noted: in vivo.
Data set [8] is described as follows: MRT (0 to 10 hrs) in Sprague-Dawley rat at 10 mg/kg, po by LC-MS/MS method. The class given is ADME, organism-based. Set-up: dose 10 mg/kg, route oral. To be noted: in vivo.
Data set [9] in a line: Oral bioavailability in Sprague-Dawley rat at 10 mg/kg by LC-MS/MS method. Type of data set: ADME, organism-based. To be noted: in vivo.
The nature of data set [10]: Half life in Sprague-Dawley rat at 5 mg/kg, iv by LC-MS/MS method. The class given is ADME, organism-based. Also on record: dose 5 mg/kg, route intravenous. To be noted: in vivo.
Data set [11] can be described thus: MRT (0 to 10 hrs) in Sprague-Dawley rat at 5 mg/kg, iv by LC-MS/MS method. To be noted: in vivo. Type of data set: ADME, organism-based. Set-up: dose 5 mg/kg, route intravenous.
Data set [12] has as its target High affinity 3',5'-cyclic-AMP phosphodiesterase 7A (Homo sapiens, UniProt Q13946).
The nature of data set [13]: Inhibition of dog adrenal gland PDE2 by [3H]cGMP based tritium scintillation proximity assay. Type of data set: tissue-based, Canis lupus familiaris.

Sequence of High affinity 3',5'-cyclic-AMP phosphodiesterase 7A (Q13946 whole entry): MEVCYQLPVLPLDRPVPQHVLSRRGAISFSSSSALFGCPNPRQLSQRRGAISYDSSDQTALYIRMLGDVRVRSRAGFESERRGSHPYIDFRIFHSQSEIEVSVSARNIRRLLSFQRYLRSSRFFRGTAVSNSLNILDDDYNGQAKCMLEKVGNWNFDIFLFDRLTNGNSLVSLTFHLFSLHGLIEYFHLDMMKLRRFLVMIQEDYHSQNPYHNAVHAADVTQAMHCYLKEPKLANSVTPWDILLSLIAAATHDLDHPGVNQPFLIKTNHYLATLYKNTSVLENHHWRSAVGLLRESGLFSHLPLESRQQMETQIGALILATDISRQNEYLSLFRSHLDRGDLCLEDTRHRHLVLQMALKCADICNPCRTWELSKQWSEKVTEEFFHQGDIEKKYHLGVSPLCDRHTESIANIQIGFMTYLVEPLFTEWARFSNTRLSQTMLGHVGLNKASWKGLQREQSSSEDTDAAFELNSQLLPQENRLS

In data set [1], `CCCOc1ccc(S(=O)(=O)N2CCN(C)CC2)cc1-c1nc(CC)c(CC)c(=O)[nH]1` showed a peak concentration (Cmax) of 468 ng/mL. Also, the AUC(0-t) at 10 h in data set [2] came to 4470 ng·h/mL; in [3] it was 895 ng·h/mL. For the same compound, the outcome with Rattus norvegicus was Active. For the same compound, the Tmax in [4] was 0.25 h. In data set [5], the clearance is 19.5 mL/min/kg. Moreover, the half-life was 3.94 h in [6] and 1.29 h in data set [10]. In [7], this compound came in with a Vd of 2.07 L/kg. Moreover, the mean residence time (MRT last) in data set [8] was 3.09 h; in [11] it was 0.81 h. The compound also showed a bioavailability in data set [9] of 10%.

`CCCc1nn(C)c2c(=O)[nH]c(-c3cc(S(=O)(=O)N4CCN(C)CC4)ccc3OCC)nc12`: the result with Rattus norvegicus was Active. In [9], the bioavailability came to 23%. For the same compound, the IC50 in data set [12] was 4.69 µM; in data set [13] it was above 10 µM.
